Results reported in publication PMC6155239, “Targeting PFKFB3 radiosensitizes cancer cells and suppresses homologous recombination” (Nature Communications, 2018).
“Also recorded” adds a separate entry of the source.

Experiments:
U2OS cells [1] = experiment: Cell cycle analysis (propidium iodide, flow cytometry); format: cell-based; details: 24 h post-IR
Procedure: For cell cycle analysis, cells were treated or transfected with siRNA as described and harvested at the indicated time points with trypsin. For studies using IR, cells were exposed to IR with 2 Gy, and harvested at the indicated time points with trypsin. The cells were washed in PBS and fixed with 70% ethanol in PBS at 4 °C for 1 h and then stored at −20 °C until staining. Ethanol was removed by centrifugation and cells were then washed in PBS before staining DNA with propidium iodide (PI) solution containing 40 μg/mL PI, 100 μg/mL RNase A, and 0.1% Triton X-100 (Sigma Aldrich). Cells were analyzed by flow cytometry on a FACS Navios (Beckman Coulter) using Kaluza software.

PFKFB3 = PFKFB3 (Homo sapiens, UniProt Q16875); experiment: ADP-Glo kinase activity assay, PFKFB3; format: biochemical; details: in vitro enzymatic assay
Sequence of PFKFB3 (Q16875 whole entry): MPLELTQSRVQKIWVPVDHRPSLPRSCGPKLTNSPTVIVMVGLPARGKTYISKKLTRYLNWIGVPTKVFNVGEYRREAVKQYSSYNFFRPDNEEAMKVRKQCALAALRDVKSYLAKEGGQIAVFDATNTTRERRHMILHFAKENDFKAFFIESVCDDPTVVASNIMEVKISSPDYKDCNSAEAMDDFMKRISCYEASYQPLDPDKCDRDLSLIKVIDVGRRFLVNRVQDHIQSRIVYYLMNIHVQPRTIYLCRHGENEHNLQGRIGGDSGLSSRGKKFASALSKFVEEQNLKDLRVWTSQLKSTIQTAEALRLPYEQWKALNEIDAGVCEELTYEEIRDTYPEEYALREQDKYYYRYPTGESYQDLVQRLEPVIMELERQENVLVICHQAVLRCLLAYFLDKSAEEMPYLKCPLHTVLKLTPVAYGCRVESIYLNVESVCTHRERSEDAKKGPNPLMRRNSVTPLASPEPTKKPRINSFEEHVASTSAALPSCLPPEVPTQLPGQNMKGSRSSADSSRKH
Procedure: The kinase activity of the bi-functional enzyme was quantified based on the production of ADP and F-2,6-P2 from ATP by ADP-GloTM Kinase Assay (Promega). The assay was performed in two steps; first, after the kinase reaction, an equal volume of ADP-GloTM Reagent was added to terminate the kinase reaction and deplete the remaining ATP. Second, the Kinase Detection Reagent was added to simultaneously convert ADP to ATP and allow the newly synthesized ATP to be measured using a luciferase/luciferin reaction. The light generated was measured using a luminescence counter (1450 MicroBeta TriLux). The assay was performed in white 384-well plates (OptiPlate, 6007299, PerkinElmer) by consecutive additions of a test compound solution (0.1 µL, serial diluted in DMSO from compound DMSO stock solution and dispensed by acoustic dispensing from UV-star 384-well plate 7360153, VWR), enzyme solution (5 µL) and substrate (fructose-6-phosphate (F6P) and adenosine-5′-triphosphate (ATP)) containing solution (5 µL). […] Four reference dose–response curves, one of them being the QC compound, were included and serial diluted as the test compounds. The final concentrations of all reagents per well were 50 mM Tris–HCl at pH 8.0, 10 mM MgCl2, 5 mM NaPi at pH 8.0, 81.48 nM PFKFB3 or 145 nM PFKFB4, 8 µM ATP, 100 µM F6P (acid treated and then neutralized to remove any contaminating F-2,6-P2[34]), 0.005% Tween-20 and 1 mM dithiothreitol. Enzyme, compounds, and controls were pre-incubated at room temperature for 15 min before the addition of substrate solution. The enzymatic reaction was allowed to proceed for 20 min and the reaction was terminated by the addition of ADP-GloTM Reagent (10 µL) to all wells followed by 40 min incubation at room temperature. […] The inhibitory potency or IC50 values of test compounds on the kinase activity of the enzymes were calculated using a four-parameter model (model 205) in XLfit (IDBS ActivityBase XE Runner).

U2OS cells [2] = experiment: IR-induced RAD51 / RPA32 foci, confocal; format: cell-based; details: in combination with IR
Procedure: (§1) Cells were grown on sterilized coverslips and fixed with 4% paraformaldehyde (PFA) (Santa Cruz) and 2% sucrose (Sigma Aldrich) for 15 min at room temperature. They were then permeabilized with 0.2% NP-40 (Thermo Scientific) for 10 min at room temperature followed by 30 min of blocking in blocking buffer (2 or 3% BSA, 5% glycerol, 0.1% Tween 20 (Sigma Aldrich)). Coverslips were subsequently incubated for 1, 2, or 24 h in primary antibody and 40 min in secondary antibody diluted in blocking buffer, DNA was stained with DAPI for 10 min. The coverslips were mounted with Prolonged Gold mounting medium (Invitrogen). Images were acquired with a Zeiss LSM 780 microscope using a 40× or 63× oil immersion lens and processed in ImageJ and CellProfiler.
To visualize PFKFB3, RPA32, RAD51, BRCA1, 53BP1, and RRM2 IRIF, the cells were first washed with PBS and then incubated for 5 min at room temperature with cytoskeleton (CSK) buffer containing 10 mM PIPES pH 7.0 (Sigma Aldrich), 100 mM NaCl (EMD Millipore), 300 mM sucrose (Sigma Aldrich), 3 mM MgCl2 (Sigma Aldrich), and 0.7% Triton X-100 (Sigma Aldrich). After these treatments, the cells were washed once again with PBS and then fixed in 4% PFA with 2% sucrose.

U2OS DR-GFP cells = experiment: DR-GFP (HR) assay; format: cell-based
Procedure: 5 × 10^4 U2OS (DR-GFP) cells were seeded into 12-well plates, 24 h later cells were treated with the indicated siRNAs or inhibitors and, 24 h later, transfected with 150 ng of an I-SceI vector using JetPEI or JetPRIME (Polyplus transfections). The next day, the medium was changed; 24 h after this, cells were harvested by trypsinization and washed with PBS, and the GFP signal was measured by flow cytometry on a FACS Navios (as described above). The frequency of repair in cells treated with inhibitors or transfected with the various siRNAs was calculated relative to cells treated with DMSO or transfected with control siRNA.

U2OS cells [3] = experiment: IR-induced nuclear recruitment of PFKFB3; format: cell-based; details: 2 h prior to IR
Procedure: as §1

U2OS cells [4] = experiment: IR-induced Mre11 / Nbs1 foci formation; format: cell-based; details: treatment prior to IR (6 Gy, 2 h recovery)
Procedure: as §1

Structure (SMILES) | accumulation of cells in G2/M phase upon IR (in words) (U2OS cells [1]) | inhibition of recombinant PFKFB3 kinase activity (in words) (PFKFB3) | IR-induced recruitment of RPA32 and RAD51 into repair foci (in words) (U2OS cells [2]) | effect on HR activity (in words) (U2OS DR-GFP cells) | IR-induced recruitment of PFKFB3 (in words) (U2OS cells [3]) | IR-induced Mre11 or Nbs1 foci formation (in words) (U2OS cells [4])
O=C(C=Cc1cccnc1)c1ccncc1 [3-PO, 3-(3-pyridinyl)-1-(4-pyridinyl)-2-propen-1-one, reference compound] | not seen | could not achieve an IC50 value | unaffected | did not decrease HR activity; also recorded: without affecting HR activity |  | 
N=C1NC(=O)/C(=C/c2ccc(O)cc2)S1 [Mirin, reference compound] |  |  |  |  | blocked | completely blocked
